pIC50: −log10 of the molar value.
Tests used:
human FXa = human FXa (Homo sapiens, UniProt P00742); assay: Human activated coagulation factor X (FXa) inhibiting activity; format: biochemical; conditions: substrate S-2765, 37° C., absorbance at 405 nm
Procedure: (1) Human Activated Coagulation Factor X (FXa) Inhibiting Activity
Method: A cuvette was charged with 225 μl of 0.05 M tris buffer (pH 8.3) containing 0.145 M sodium chloride and 2 mM calcium chloride, 5 μl of a sample (test compound dissolved in dimethyl sulfoxide) and 10 μl of human FXa (0.3 unit/ml), which were reacted at 37° C. for 10 minutes and then combined with 10 μl of a substrate (3 mM, S-2765) and further reacted at 37° C. for 10 minutes. Then the reaction was terminated by adding 25 μl of 50% aqueous acetic acid, and the change in the absorbance at 405 nm was determined using a spectrophotometer to calculate the concentration at which the FXa effect was inhibited by 50% (IC50).

Human normal plasma = assay: In vitro clotting time measurement: prothrombin time (PT); format: biochemical; conditions: PT 2-fold extending concentration (CT2), rabbit brain-derived tissue thromboplastin
Procedure: (2) In vitro Clotting Time Measurement
(2-1) Prothrombin Time (PT) Measurement:
A PT-test WAKO (WAKO PURE CHEMICAL) was employed together with an automatic coagulometer (STA compact DIAGNOSTICA STAGO). 97 μl of Human normal plasma (fresh human plasma, FFP, SEKISUI KAGAKU KOGYO) was combined with 3 μl of a test substance and pre-incubated at 37° C. for 4 minutes. 50 μl of the plasma described above was combined with 100 μl of rabbit brain-derived tissue thromboplastin solution and the time for the clotting was measured. The test substance was used after dissolving in dimethyl sulfoxide (DMSO). A concentration required for 2-fold prolongation of the clotting time was calculated based on the clotting time observed when DMSO was added instead of the test substance.

Sequence of human FXa (P00742 235-488 limits assumed): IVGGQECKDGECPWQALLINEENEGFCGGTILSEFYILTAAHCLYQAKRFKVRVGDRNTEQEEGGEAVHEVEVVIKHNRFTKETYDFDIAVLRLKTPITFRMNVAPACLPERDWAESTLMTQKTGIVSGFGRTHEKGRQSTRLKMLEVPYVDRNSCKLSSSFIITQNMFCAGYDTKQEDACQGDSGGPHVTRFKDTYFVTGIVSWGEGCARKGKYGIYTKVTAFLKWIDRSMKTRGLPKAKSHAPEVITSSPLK
Sequence of human FXa (P00742 41-179 partner limits assumed): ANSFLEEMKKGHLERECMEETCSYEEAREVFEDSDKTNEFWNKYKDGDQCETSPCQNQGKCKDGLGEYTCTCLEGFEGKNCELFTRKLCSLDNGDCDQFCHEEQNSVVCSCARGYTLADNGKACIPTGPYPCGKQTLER

- pIC50 (human FXa): 8.34
SMILES: CCOC(=O)NC1(CN2CCN(S(=O)(=O)c3ccc4cc(Cl)ccc4c3)CC2=O)CCN(c2ccncc2)CC1 [Example 1, 4-(6-Chloronaphthalene-2-sulfonyl)-1-[4-ethoxycarbonylamino-1-(4-pyridyl)-4-piperidylmethyl]-2-piperazinone]
- PT CT2 (Human normal plasma): 0.27 µM
